From PubChem BioAssay (NCI)
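Each compound was tested at five concentrations against cells in 96-well plates for 48 hours. TGI: total growth inhibition.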

Experiments:
Experiment in all cases: NCI anticancer screen, dose series, 48 h
[1] = system: DU-145 prostate
[2] = system: M14 melanoma
[3] = system: MDA-MB-435
[4] = system: NCI-H460 lung
[5] = system: RPMI-8226 leukemia
[6] = system: SN12C renal
[7] = system: SNB-19 CNS
[8] = system: SW-620 colon
[9] = system: TK-10 renal
[10] = system: UO-31 renal
[11] = system: SF-539 CNS

Structure (SMILES) | TGI [1] [µM] | TGI [2] [µM] | TGI [3] [µM] | TGI [4] [µM] | TGI [5] [µM] | TGI [6] [µM] | TGI [7] [µM] | TGI [8] [µM] | TGI [9] [µM] | TGI [10] [µM] | TGI [11] [µM]
COc1ccc(N2C(=O)C3c4[nH]c5ccc(F)cc5c4C4CCC(c5ccccc5)CC4C3C2=O)cc1 (configuration not stated) | > 100 | 45.1 | 53.9 | 46.8 | > 100 | > 100 | 27.9 | 59.9 | 70.1 | 55.5 | 
NNC(=O)c1nnn(CCc2ccccc2)c1C(=O)NN | > 100 | > 100 | > 100 | > 100 | > 100 | > 100 | > 100 |  | > 100 | > 100 | 
CCOC(=O)CC(=O)Nc1cccc2[nH]cnc12 | > 100 | > 100 | > 100 | > 100 | > 100 | > 100 | > 100 | > 100 |  | > 100 | > 100
N#Cc1c(-c2ccccc2)[nH]c(=O)n(C2OC(CO)C(O)C(O)C2O)c1=O (configuration not stated) | > 100 | > 100 | > 100 | > 100 | > 100 | > 100 | > 100 | > 100 | > 100 | > 100 | > 100
O=c1[nH]nc(Cc2ccccc2)n1CCO | > 100 | > 100 | > 100 | > 100 | > 100 | > 100 | > 100 | > 100 | > 100 | > 100 | > 100
C=C1C(=O)O[C@@H]2C=C(C)C3=CC(=O)[C@](C)(C[C@H](OC(=O)/C(C)=C\C)[C@@H]12)O3 | 15.8 | 2.46 | 3.74 | 7.73 | 0.938 | 5.1 | 22.4 | 1.33 | 2.19 | 2.37 | 6.09
COC(=O)[C@H](Cc1c[nH]c2ccccc12)NC(=O)c1ccc(CNC(=O)/C=C/c2cccc(Oc3ccccc3)c2)cc1 | > 100 | > 100 | 27.8 | > 100 | > 100 | > 100 | > 100 | > 100 | > 100 | > 100 | 
NC1=CN2c3ccccc3N(CC(=O)O)C2C=C1 (configuration not stated) | > 100 | > 100 | > 100 | > 100 | > 100 |  | > 100 | > 100 | > 100 | > 100 | > 100
N#Cc1c(-c2ccccc2)c(N=Nc2ccc(Cl)cc2)c(=O)n2c1[nH]c1ccccc12 |  | > 100 | > 100 | > 100 | > 100 | > 100 | > 100 | > 100 | > 100 | > 100 | > 100
COc1ccc(N2C=Nn3c(nc4sc5c(c4c3=O)CCCC5)C2)cc1 | > 100 | > 100 | > 100 | > 100 | > 100 | > 100 | > 100 | > 100 | > 100 | > 100 | 
Cc1ccc(/C(O)=C/c2nc3ccccc3s/c2=N/CS(=O)(=O)c2ccc(C)cc2)cc1 | > 10 | > 10 | > 10 |  | > 10 | > 10 | > 10 | > 10 | > 10 |  | > 10
O=C1CCCCCCCCCCC1CN1CCCCC1 (configuration not stated) |  |  |  | > 100 | > 100 | > 100 | > 100 | > 100 | > 100 | > 100 | 
CCOP(=O)(OCC)C(N)c1ccc(Cl)cc1 (configuration not stated) | > 100 | > 100 | > 100 | > 100 | > 100 | > 100 | > 100 | > 100 | > 100 |  | > 100
CC1(C)C2CC(=O)C1(C)C(OCc1ccccc1)C2 (configuration not stated) | > 100 | 71.3 | > 100 | > 100 | > 100 | > 100 | > 100 | 87.3 | > 100 | > 100 | > 100
CC1=NN(c2nc(N)nc(CC#N)n2)C(C)(C)C1 | > 100 | > 100 | > 100 | > 100 | > 100 |  | > 100 | > 100 | > 100 | > 100 | > 100
CC(C)(C)C(=O)OC12/C(=N/O)CCCCCC1c1ccccc12 (configuration not stated) |  | 31.2 |  | 32.3 | 30.9 | 33.6 | 31.1 | 34.2 | 30.1 | 31.7 | 39
Clc1ccc(C(SCc2ccccc2)SCc2ccccc2)cc1 | > 10 | > 10 |  | > 10 | > 10 | > 10 | > 10 | > 10 | > 10 | > 10 | > 10
Cc1ccc(/C=N/Nc2ccc3ccccc3n2)s1 |  | 58.8 | 56.7 |  | 86.9 | 28.4 | 59 | 92.1 | > 100 | > 100 | > 100
Nc1ccc(C(=O)c2cn(CCN3CCOCC3)c3ccccc23)c2ccccc12 | > 100 | > 100 | 83 | > 100 | > 100 |  | > 100 | > 100 |  | > 100 | > 100
Cc1cc(=O)oc2c(C)c(OCCCOc3ccc4c(C)cc(=O)oc4c3C)ccc12 |  | > 100 |  | > 100 | > 100 |  | > 100 | > 100 | > 100 | > 100 | > 100
CC(=O)OC[C@@H](OC(C)=O)[C@H](OC(C)=O)[C@@H]1OC(C)(C)O[C@@H]1C1SCCCS1 | > 100 | > 100 | > 100 | > 100 | > 100 |  | > 100 | > 100 | > 100 | > 100 | > 100
CCNC(=O)c1c(O)c2ccccc2[nH]c1=O | > 100 |  | > 100 | > 100 | > 100 | > 100 | > 100 | > 100 | > 100 | > 100 | > 100

Structure (SMILES) | TGI [1] [µM] | TGI [2] [µM] | TGI [3] [µM] | TGI [4] [µM] | TGI [5] [µM] | TGI [6] [µM] | TGI [7] [µM] | TGI [8] [µM] | TGI [9] [µM] | TGI [10] [µM] | TGI [11] [µM]
O=CC12C3CCC1C2C(=O)C3 (configuration not stated) | > 100 | > 100 | > 100 | > 100 | > 100 | > 100 | > 100 | > 100 | > 100 |  | > 100
CCOC(=O)/C(C#N)=C/c1ccnc2ccccc12 | > 100 | > 100 | > 100 | > 100 | 92.5 | > 100 | > 100 | > 100 | > 100 |  | 50
CC(=O)N=C1N(/C=C2\C(=O)Oc3ccccc3C2=O)C(=O)/C(=C/c2ccc(Cl)cc2Cl)N1C | > 100 | > 100 | > 100 |  | > 100 | > 100 |  | > 100 |  |  | > 100
C/C=C/C1OC(O)(C(C)C(O)[C@H](C)C2OC(=O)/C(OC)=C/C(C)=C/[C@@H](C)[C@@H](O)[C@@H](C)C(O)C(C)C/C(C)=C/C=C/C2OC)C[C@@H](OC2CC(O)C(OC(N)=O)C(C)O2)C1C (some centres not stated) | 16.2 | < 0.01 | 2.58 | 1.36 |  | 15 | 10.5 | 1.01 | 1.78 | 13.8 | < 0.01
Cc1cc(S(=O)(=O)Nc2nc(N)nc(N(C)C)n2)c(SCC(=O)O)cc1Cl | > 10 | > 10 |  | > 10 | > 10 | > 10 | > 10 | > 10 | > 10 | > 10 | > 10
Cc1csc(/N=C\c2c(O)c3ccccc3oc2=O)n1 | > 100 | > 100 | > 100 |  |  |  | > 100 | > 100 | 77.8 | 75.9 | > 100
O=S(=O)(/N=C(\NO)Nc1ccc(Cl)cc1)c1cccc2nsnc12 | > 100 | > 100 | > 100 | > 100 |  | 63.1 | > 100 | > 100 | > 100 | > 100 | > 100
FC1C2=C(SC1(F)F)C1CCC2C1 (configuration not stated) | > 100 | > 100 | > 100 | > 100 | > 100 |  | > 100 | > 100 | > 100 | > 100 | 
O=C1CC(c2cccc(Br)c2)n2cccc21 (configuration not stated) | > 100 | > 100 | > 100 |  | > 100 | > 100 | > 100 | > 100 | > 100 | 66.9 | > 100
CN(/N=C/c1ccnc2ccccc12)c1ccc(Cl)cc1[N+](=O)[O-] | > 100 | > 100 | > 100 | > 100 |  | > 100 | > 100 | > 100 | > 100 | > 100 | > 100
CC1=Nc2sc3c(c2C2=NCCN12)CCCC3 | > 100 |  | 91.6 | 39 | 46.9 | 69.6 | > 100 | 52.9 | > 100 | 50.5 | 
CC(=O)OC1COC(Nc2nc(NCc3ccccc3)n(C)c(=O)c2N=O)C(OC(C)=O)C1OC(C)=O (configuration not stated) | > 10 | > 10 | > 10 | > 10 | > 10 | > 10 | > 10 | > 10 | > 10 |  | > 10
C=C1C(=O)O[C@H]2[C@@H](O)[C@H](C)CCC[C@]3(C)O[C@H]3CC[C@@]3(C)O[C@@H]3C[C@@H]12 | 12.9 | 12.4 | 10 |  | 50 | 13.2 | 27.7 | 5.05 |  | 12.4 | 13.3
CC(C)C1=CC23CCC4C(C)(C(=O)O)CCCC4(C)C2CC1C1C(=O)N(c2ccccc2)C(=O)C13 (configuration not stated) |  | > 100 |  | > 100 | > 100 | > 100 | > 100 | > 100 | > 100 | > 100 | > 100
O=C(N/N=C(/COc1ccc([N+](=O)[O-])cc1)N=Cc1ccncc1)c1ccncc1 | > 100 | > 100 | > 100 | > 100 | > 100 | > 100 | > 100 | > 100 | > 100 |  | > 100
COc1cc2cc(C(=O)N3CC(CCl)c4c3cc(N)c3ccccc43)[nH]c2c(OC)c1OC (configuration not stated) | 0.0549 |  |  |  | < 0.0107 | < 0.01 | 10.5 | > 100 | 2.32 | < 0.01 | 
CCCCON1C[C@H](OC(C)=O)C(OC(C)=O)[C@H](OC(C)=O)C1 (some centres not stated) | > 100 | > 100 | > 100 | > 100 | > 100 | > 100 | > 100 |  | > 100 | > 100 | > 100
O=C(O)Cc1ccc2[nH]c(O)c(C3=Nc4ccccc4C3=O)c2c1 | > 100 | > 100 | > 100 | > 100 | > 100 | > 100 | > 100 | > 100 | > 100 | > 100 | 
O=[N+]([O-])c1ccc(C=NCC2CCCN3CCCCC23)cc1 (configuration not stated) | > 100 | > 100 | > 100 | > 100 | 48.1 | > 100 | > 100 | > 100 | > 100 | > 100 | 
CC(=O)OCC1OC(Oc2cc(C)c(O)cc2C/C=C(\C)CC/C=C(\C)CC(=O)CC(C)C)C(O)C(OC(C)=O)C1OC(C)=O (configuration not stated) | > 50 | 25.7 | 48.4 | 40 | 21.4 | 40.3 | > 50 | 24.6 | 41.1 | 32 | 
CCOC(=O)C(NC(=O)c1ccccc1)(N1CCOCC1)C(F)(F)F (configuration not stated) | > 100 | > 100 | > 100 |  | > 100 | > 100 | > 100 | > 100 | > 100 | > 100 | > 100
